According to PubChem BioAssay AID1959 (Broad Institute, 2009):
pEC50: −log10 of the molar value. Active and inactive are the calls of the source.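 The calls were made as follows: active = growth-inhibition EC50 no more than tenfold above the top tested dose; inconclusive = flat fit between 30% and 70% inhibition, or unreliable fit; inactive = EC50 more than tenfold above the top tested dose.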

The molecules below were run on E. coli NEB5alpha growth, BacTiter-Glo luminescence, 4 h (assay: Escherichia coli growth inhibition, dose response, counter-screen for MEX-5/POS-1 RNA-binding inhibitor project, luminescence, NEB5alpha (AID 1959);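 also: pUC19-transformed ampicillin-resistant cells grown in LB with ampicillin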).
`Cc1cc(/C=C2\C(=O)NC(=O)N(c3ccc(F)cc3)C2=O)c(C)n1-c1ccc(C(=O)O)cc1` was tested, and the EC50 was > 11 µM (inactive).
For `Oc1ccc(C2=CSC3=NCCN23)cc1O`, the EC50 was > 11 µM (inactive).
With `CN1CC=C2C(C#N)=C(N)C(C#N)(C#N)C(c3cccc(Cl)c3Cl)C2C1` (centres undefined) the EC50 was > 11 µM (inactive).
With `C=CCn1cc(C=C2C(=O)NC(=O)NC2=O)c2ccccc21` the EC50 was > 11 µM (inactive).
For `COC(=O)CCC(=O)OC1(C)C(=O)C2=COC(c3ccc(OC)cc3)=CC2=C(Br)C1=O` (centres undefined), the EC50 was > 11 µM (inactive).
`Nc1ccc2c(c1)C/C(=C/c1ccco1)C2=O` was tested, and the EC50 was > 11 µM (inactive).
For `O=C/C(=C\Nc1ccccn1)c1nc2ccccc2o1`, the EC50 was > 11 µM (inactive).
In the case of `Cc1n[nH]c(C)c1S(=O)(=O)N1CCCC(C(=O)Nc2ccc(Br)cc2)C1` (centres undefined), the EC50 was > 11 µM (inactive).
With `Cc1ccc(N2C(=O)NC(=O)/C(=C/c3cnn(-c4ccc(C)cc4)c3)C2=O)cc1` the EC50 was > 11 µM (inactive).
`CCOC(=O)Cc1nc2ccccc2n(CC#N)c1=O` was tested, and the EC50 was > 11 µM (inactive).
With `CCn1cc(C(=O)NCc2ccccn2)c(=O)c2cc(S(=O)(=O)N3CCCCC3)ccc21` the EC50 was > 11 µM (inactive).
In the case of `CC(=O)C1=C(c2cccc([N+](=O)[O-])c2)N(C(C)=O)n2c(C)nnc2S1`, the EC50 was > 11 µM (inactive).
With `CN1C=C/C(=C\c2cc[n+](C)c3ccccc23)c2ccccc21` the EC50 was > 11 µM (inactive).
`Cc1cccc(N=C2NC(=O)CS2)c1` was tested, and the EC50 was > 11 µM (inactive).
With `Cc1cc(/C=C(/C#N)c2nc3ccccc3[nH]2)c(C)n1-c1ccccc1C(=O)O` the EC50 was > 11 µM (inactive).
`Cc1onc(-c2c(F)cccc2Cl)c1C(=O)N1CCCc2ccccc21` was tested, and the EC50 was > 11 µM (inactive).
For `COC(=O)c1[nH]c2cc(OC)c(OC)cc2c1/C=N/Nc1ccccc1`, the EC50 was > 11 µM (inactive).
For `Cc1cccc(-c2c3c(=O)n(C)c(=O)n(C)c3c3cccnn23)c1`, the EC50 was > 11 µM (inactive).
With `C=CCSc1nnc(N2C(=O)C(O)=C(C(=O)c3ccco3)C2c2ccccc2F)s1` (centres undefined) the EC50 was > 11 µM (inactive).
In the case of `Cc1c(CN2CCCCC2)c(O)n(CCCO)c(=O)c1C#N`, the EC50 was > 11 µM (inactive).
For `Cc1cc(/C=C2\C(=O)NC(=O)N(C)C2=O)c(C)n1-c1ccc2c(c1)OCO2`, the EC50 was > 11 µM (inactive).
For `O=C(Cn1cncn1)N/N=C/c1c2ccccc2cc2ccccc12`, the EC50 was > 11 µM (inactive).
With `CC1(C)CC(=O)C2=C(C1)OC(N)=C(C#N)C2c1ccc2c(c1)OCO2` (centres undefined) the EC50 was > 5.6 µM (inactive).
In the case of `CN(C)c1ccc(O)c2c1CC1CC3C(N(C)C)C(=O)C(C(N)=O)=C(O)[C@@]3(O)C(=O)C1=C2O` (some centres undefined), the pEC50 was 5.19.
For `O=C1c2cccc3c(N4CCCCC4)ccc(c23)C(=O)N1CCO`, the EC50 was > 11 µM (inactive).
With `COc1ccc(S(=O)(=O)C(C#N)c2nc3ccccc3nc2N2CCC(C)CC2)cc1` (centres undefined) the EC50 was > 11 µM (inactive).
With `CN(C)c1ccc(/C=C(\C#N)C(=O)NCc2ccco2)cc1` the EC50 was > 11 µM (inactive).
For `C1=C(c2ccccc2)Nc2nnnn2C1c1cccs1` (centres undefined), the EC50 was > 11 µM (inactive).
`CCCN1CCc2cccc3c2[C@H]1Cc1ccc(O)c(O)c1-3` was tested, and the EC50 was > 11 µM (inactive).
`Nc1nnc2c(n1)CCCC2` was tested, and the EC50 was > 11 µM (inactive).
For `COc1cc(C2C(C#N)=C(N)OC3=C2C(=O)CC(C)(C)C3)ccc1OCCN1CCOCC1` (centres undefined), the EC50 was > 11 µM (inactive).
In the case of `CCN1CCN(Cc2c(C(=O)N/N=C(\C)c3ccc(Cl)cc3)nnn2-c2nonc2N)CC1`, the EC50 was > 11 µM (inactive).
With `O=c1[nH]c(=O)n(-c2ccc(F)cc2)c(O)c1/C=C1\C=Nc2ccccc21` the EC50 was > 11 µM (inactive).
`CCC(C)n1c(=N)c(C#N)cc2c(=O)n3cc(C)ccc3nc21` (centres undefined) was tested, and the EC50 was > 11 µM (inactive).
In the case of `CN1C(=O)/C(=C/C=C/c2ccco2)C(=O)NC1=S`, the EC50 was > 11 µM (inactive).
In the case of `O=C(CNC(=O)/C=C/c1ccco1)N=Nc1c(O)[nH]c2ccccc12`, the EC50 was > 11 µM (inactive).
In the case of `Cc1cc(O)c(Oc2cc(C)cc(O)c2O)c(O)c1`, the EC50 was > 11 µM (inactive).
For `CC(=O)c1cc(NC(=O)c2ccc(Cl)cc2)c(=O)oc1/C=C/N(C)C`, the EC50 was > 11 µM (inactive).
For `O=C(N/N=C/c1ccc(O)c(O)c1)N/N=C/c1ccc(O)c(O)c1`, the EC50 was > 11 µM (inactive).
In the case of `CN1CC=C2C(C#N)=C(N)C(C#N)(C#N)C(c3ccncc3)C2C1` (centres undefined), the EC50 was > 11 µM (inactive).
With `Cc1[nH][nH]c(=O)c1C(c1ccc(-c2ccccc2C(=O)O)o1)c1c(C)[nH][nH]c1=O` the EC50 was > 11 µM (inactive).
In the case of `Clc1ccc(C2=CC(c3ccco3)n3ncnc3N2)cc1` (centres undefined), the EC50 was > 11 µM (inactive).
In the case of `CCN(CC)c1ccc(N=Cc2c(O)n(-c3ccccc3)c(=O)[nH]c2=O)cc1`, the EC50 was > 11 µM (inactive).
For `Cc1cc(C(=O)O)ccc1-n1c(C)ccc1C`, the EC50 was > 11 µM (inactive).
`COC/C=C/C1=CC2=CC(=O)C(C)(OC(=O)C3CCCC3)C(=O)C2=CO1` (centres undefined) was tested, and the EC50 was > 11 µM (inactive).
In the case of `O=c1[nH][nH]c2cc(=O)n(-c3ccc(Cl)cc3)nc12`, the EC50 was > 11 µM (inactive).
`Cc1n[nH]c(=S)c2nn(-c3cccc(Cl)c3)c(C)c12` was tested, and the EC50 was > 11 µM (inactive).
In the case of `Cc1cc2nc3ccc(=[N+](C)C)cc-3sc2cc1N`, the EC50 was > 11 µM (inactive).
`C/C(=N\NC(=O)c1nnn(-c2nonc2N)c1-c1cccs1)c1cccc(O)c1` was tested, and the EC50 was > 11 µM (inactive).
In the case of `CCN(CC)CCN(Cc1cc2ccc(C)c(C)c2[nH]c1=O)C(=S)NCc1ccco1`, the EC50 was > 11 µM (inactive).
With `Cc1cc(C)c(S(=O)(=O)Nc2cc(SCC(=O)O)c(O)c3ccccc23)cc1C` the EC50 was > 11 µM (inactive).
`S=C(NCc1ccncc1)Nc1ccc(Cl)cc1Cl` was tested, and the EC50 was > 11 µM (inactive).
For `Cc1ccc(C)n1-c1ccc2c(c1)COC2=O`, the EC50 was > 11 µM (inactive).
For `COc1cc(C2C(C#N)=C(N)Oc3n[nH]c(-c4cccnc4)c32)cc(Br)c1O` (centres undefined), the EC50 was > 11 µM (inactive).
In the case of `CC(C)c1cc(C(N)=O)c(NC(=O)c2cccc(COc3ccc(Br)cc3)c2)s1`, the EC50 was > 11 µM (inactive).
`N#CC1=C(N)Oc2ccc3ccc(O)cc3c2C1c1ccsc1` (centres undefined) was tested, and the EC50 was > 11 µM (inactive).
`COc1cc(/C=C2/N=C(c3ccccc3)OC2=O)c(F)cc1OCc1ccccc1` was tested, and the EC50 was > 11 µM (inactive).
For `CNc1nnc(-c2cc3ccccc3oc2=O)s1`, the EC50 was > 11 µM (inactive).
`CCCCNC(=S)NNC(=O)c1cc(C)on1` was tested, and the EC50 was > 11 µM (inactive).
With `CN(C)c1cc(-c2ccc([N+](=O)[O-])cc2)oc(=O)c1Cl` the EC50 was > 11 µM (inactive).
For `COc1ccc(-c2onc3ccc(C(C)=O)cc23)cc1`, the EC50 was > 11 µM (inactive).
For `CC1(C)CC(=O)C2=C(C1)Nc1ccccc1S2`, the EC50 was > 11 µM (inactive).
`COc1ccc(-n2c(O)c(/C=C3\C=Nc4ccc(Br)cc43)c(=O)[nH]c2=O)c(OC)c1` was tested, and the EC50 was > 11 µM (inactive).
For `CCOc1cc(/C=C/c2cccc[n+]2C)ccc1OCC(=O)Nc1ccc(C)cc1`, the EC50 was > 11 µM (inactive).
`C[C@H]1c2cccc(O)c2C(O)=C2C(=O)[C@]3(O)C(O)=C(C(N)=O)C(=O)[C@@H](N(C)C)[C@@H]3[C@@H](O)[C@@H]21` showed a pEC50 of 5.33.
`O=c1[nH]c(=O)n(Cc2ccccc2)c(O)c1C=Nc1ccc(CN2CCOCC2)cc1` was tested, and the EC50 was > 11 µM (inactive).
In the case of `COc1ccc(C(=O)NC2(C(F)(F)F)C(=O)N(Cc3ccco3)C3=C2C(=O)CC(C)(C)C3)cc1OC` (centres undefined), the EC50 was > 11 µM (inactive).
In the case of `CCCOc1cccc(C2C(C(=O)c3ccco3)=C(O)C(=O)N2c2nnc(C)s2)c1` (centres undefined), the EC50 was > 11 µM (inactive).
For `CCOc1ccc(NC(=O)COc2ccccc2)c([N+](=O)[O-])c1`, the EC50 was > 11 µM (inactive).
